From patent US6093747A, “1,7,7-trimethyl-bicyclo[2.2.1]heptane derivatives as anxiolytic agents having enhanced receptor specificity” (priority 1996, dated 2000)

Tests used:
Sigma = biological target: T1, Sigma (Rattus norvegicus, UniProt Q9R0C9); test: Receptor binding assay, Sigma (3H-pentazocine); set-up: species or system male Wistar rat; settings: for Ki: Sigma, 3H-pentazocine 3.0 nM, cerebellum
T1 construct: from tissue; host or cells: male Wistar rat cerebellum, membrane fraction
Experimental: (§1) The different brain regions of 120-200 g male Wistar rats were used for receptor binding assays except for 5-HT2c receptors where binding studies were performed on porcine choroid plexus. Protein content of the membrane fraction was determined as described by Lowry [Lowry, O. H., Rosebrough, M. J., Farr, A. L. and Randall, R. Y.: J. Biol. Chem., 193: 265-275, 1951].
Sigma ^3 H-pentazocine cerebellum haloperidol Costa B. R. et
3.0 nM (10 μM) al., Febs Lett.,

D1 = biological target: T2, D1 (Rattus norvegicus, UniProt P18901); test: Receptor binding assay, D1 (3H-SCH 23390); set-up: species or system male Wistar rat; settings: 3H-SCH 23390 0.78 Nm, striatum
T2 construct: from tissue; host or cells: male Wistar rat striatum, membrane fraction
T2 sequence (P18901 whole entry): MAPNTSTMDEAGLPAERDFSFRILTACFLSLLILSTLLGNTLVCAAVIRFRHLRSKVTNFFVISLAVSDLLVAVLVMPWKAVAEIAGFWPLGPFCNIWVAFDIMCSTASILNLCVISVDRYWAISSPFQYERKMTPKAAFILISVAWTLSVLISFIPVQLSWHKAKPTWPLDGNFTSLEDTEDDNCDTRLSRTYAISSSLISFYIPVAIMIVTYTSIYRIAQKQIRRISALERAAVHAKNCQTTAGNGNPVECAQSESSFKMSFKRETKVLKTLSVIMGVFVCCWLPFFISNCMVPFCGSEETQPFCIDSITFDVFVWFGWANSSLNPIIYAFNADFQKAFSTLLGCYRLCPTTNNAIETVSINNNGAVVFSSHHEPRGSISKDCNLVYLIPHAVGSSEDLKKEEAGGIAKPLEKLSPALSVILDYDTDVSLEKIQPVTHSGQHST
Experimental: as §1
D1 ^3 H-SCH 23390 striatum cis- Hietala J. et
0.78 Nm flupentixol al., Neurosci.

animal or person = type: in vivo, male NMRI mice; settings: for ED50: Mus musculus, po, 1 h, read-out: ED50, potentiation of hexobarbital induced narcosis
Experimental: Potentiation of Hexobarbital Induced Narcosis
Male NMRI mice weighing 20-25 g were treated p.o. with the test compound or with vehiculum in 20 ml/kg volume 60 minutes prior to the iv. injection of 40 mg/kg (10 ml/kg) hexobarbital. The sleeping animals were placed on a flat surface lying on their left side and the accurate sleeping and awakening times were recorded. The animals were considered to be awaken when they rolled up from their side.
Sleeping times 2.5 times higher than the average of the control group were considered as criterion for potentiation (cut up method), results were expressed as percent increase compared to control values, ED50 values were calculated from the dose response curves according to Litchfield-Wilcoxon.

[1] = Inhibition of mCPP induced anxiety (light-dark apparatus); type: in vivo, male Wistar rats; settings: for minimal effective dose: Rattus norvegicus, ip, treated twenty minutes before mCPP s.c., read-out: MED (minimal effective dose), inhibition of mCPP induced anxiety; for effect on mCPP induced anxiety (in words): rat model, Compound A up to 3.0 mg/kg i.p.
Experimental: The tests were carried out on male Wistar rats weighing 160-220 g according to Kennett [Kennett, G. A., Whitton, P., Shah, K. and Curzon, G. Eur. J. Pharmacol., 164: 445-454, 1989.]. The animals were treated either with the test compound or with vehiculum (0.4% methyl cellulose solution). Twenty minutes later either mCPP (m-chlorophenyl-piperazin) or physiological saline was administered subcutaneously. The animals were kept in the dark for additional 20 minutes, then they were placed into the light-dark apparatus (Omnitech, Digiscan, Model RXYZCM16) and their motor activity was recorded for five minutes. The testbox consisted of one dark and one lit compartment of the same size (39×20×29 cm) with an 8×8 gate providing free passage for the animals between the two compartments. The lit area was illuminated by a 40 W red light bulb 30 cm above the floor. Motor activity was recorded as the number of interruptions of the infrared light beams (16 beams 2 cm and 16 beams 8 cm above the floor). The number of crossing in the lit compartment was considered as the measure of antagonistic effect on mCPP induced anxiety. Data were statistically analyzed by one way ANOVA followed by Dunnet's t-test.

Elevated plus-maze test = type: in vivo, male Sprague-Dawley rats; settings: for minimal effective dose: Rattus norvegicus, 1 h, treated 60 minutes prior to the test, based on times spent in the open arms, read-out: MED (minimal effective dose), elevated plus maze; for effect in the elevated plus maze test (in words): rat, in vivo
Experimental: The elevated plus-maze consisted of two open and two 40 cm wall enclosed arms of the same size (50×15 cm) arranged in the shape of a cross. The arms of the same type were opposite to each other. The junction of the four arms forms a central square area (15×15 cm). The apparatus is made of wooden material elevated to a height of 50 cm from the floor and illuminated by a dim light from above.
Male Sprague-Dawley rats weighing 220-260 g were treated with the test or reference compounds 60 minutes prior to the test. They were then placed onto the central square area and were subjected to the test for 5 minutes. The following parameters were determined:
Time spent in the open arms;
Time spent in the closed arms;
Number of entries into the open arms;
Number of entries into the closed arms.
A compound was considered to be effective when significant increase was found either in the time spent in the open arms or in the number of entries into the open arms when compared to the control animals. Minimum Effective Doses (MED) were determined based on the times spent in the open arms for each compound examined (Table II) [Pelow et al., J. Neurosci. Methods, 14: 149-169, 1985].

5-HT2A = biological target: T3, 5-HT2A (Rattus norvegicus, UniProt P14842); test: Receptor binding assay, 5-HT2A (3H-ketanserin); set-up: species or system male Wistar rat; settings: 3H-ketanserin 1.0 nM, frontal cortex
T3 construct: from tissue; host or cells: male Wistar rat frontal cortex, membrane fraction
T3 sequence (P14842 whole entry): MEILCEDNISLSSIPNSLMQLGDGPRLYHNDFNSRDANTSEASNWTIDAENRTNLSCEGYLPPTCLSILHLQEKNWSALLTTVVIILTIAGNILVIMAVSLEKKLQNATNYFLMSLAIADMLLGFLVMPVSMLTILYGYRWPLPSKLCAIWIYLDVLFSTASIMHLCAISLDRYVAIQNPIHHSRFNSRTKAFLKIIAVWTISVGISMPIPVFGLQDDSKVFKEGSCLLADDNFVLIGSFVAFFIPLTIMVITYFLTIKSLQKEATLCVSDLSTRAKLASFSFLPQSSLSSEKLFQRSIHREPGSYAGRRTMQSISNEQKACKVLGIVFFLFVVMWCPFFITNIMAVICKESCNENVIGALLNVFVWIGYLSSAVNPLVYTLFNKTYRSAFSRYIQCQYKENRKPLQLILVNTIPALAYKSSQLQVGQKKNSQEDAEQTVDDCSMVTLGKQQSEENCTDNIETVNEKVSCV
Experimental: as §1
5-HT2A ^3 H-ketanserin frontal cyprohepta- Leysen, J. E.
1.0 nM cortex dine et al.: Mol.

D2 = biological target: T4, D2 (Rattus norvegicus, UniProt P61169); test: Receptor binding assay, D2 (3H-spiperone); set-up: species or system male Wistar rat; settings: 3H-spiperone 0.5 nM, striatum
T4 construct: from tissue; host or cells: male Wistar rat striatum, membrane fraction
T4 sequence (P61169 whole entry): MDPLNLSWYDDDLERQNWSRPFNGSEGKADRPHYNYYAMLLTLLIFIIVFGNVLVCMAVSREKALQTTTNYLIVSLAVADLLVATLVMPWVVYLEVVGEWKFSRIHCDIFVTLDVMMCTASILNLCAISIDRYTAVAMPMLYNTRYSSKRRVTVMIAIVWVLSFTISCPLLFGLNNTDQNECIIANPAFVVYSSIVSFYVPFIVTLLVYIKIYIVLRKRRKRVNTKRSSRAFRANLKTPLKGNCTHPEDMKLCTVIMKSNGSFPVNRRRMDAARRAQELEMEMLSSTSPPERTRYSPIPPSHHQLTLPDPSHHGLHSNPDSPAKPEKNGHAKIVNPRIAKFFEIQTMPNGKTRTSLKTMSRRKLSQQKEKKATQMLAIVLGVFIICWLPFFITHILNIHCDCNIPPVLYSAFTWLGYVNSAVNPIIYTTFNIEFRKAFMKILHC
Experimental: as §1
D2 ^3 H-spiperone striatum butaclamol Leff, S. et al.,

5-HT1A = biological target: T5, 5-HT1A (Rattus norvegicus, UniProt P19327); test: Receptor binding assay, 5-HT1A (3H-8-OH-DPAT); set-up: species or system male Wistar rat; settings: 3H-8-OH-DPAT 0.7 nM, frontal cortex
T5 construct: from tissue; host or cells: male Wistar rat frontal cortex, membrane fraction
T5 sequence (P19327 1-422): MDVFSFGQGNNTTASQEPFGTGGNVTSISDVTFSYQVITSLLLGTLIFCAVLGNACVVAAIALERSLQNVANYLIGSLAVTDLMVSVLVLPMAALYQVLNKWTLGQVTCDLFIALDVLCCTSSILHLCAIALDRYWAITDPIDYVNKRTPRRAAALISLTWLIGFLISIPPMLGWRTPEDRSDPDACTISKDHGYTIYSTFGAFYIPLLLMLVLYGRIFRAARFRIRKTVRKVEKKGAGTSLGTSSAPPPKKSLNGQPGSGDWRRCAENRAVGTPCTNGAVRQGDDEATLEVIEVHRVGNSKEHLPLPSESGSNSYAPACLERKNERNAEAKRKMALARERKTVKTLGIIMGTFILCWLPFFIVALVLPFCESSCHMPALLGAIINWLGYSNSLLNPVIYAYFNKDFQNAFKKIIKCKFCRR
Experimental: as §1
frontal 5-HT Peroutka, S.
0.7 nM cortex (10 μM) J. J.

[2] = Inhibition of spontaneous motor activity; type: in vivo, mice; settings: for ED50: Mus musculus, 1 h, treated 60 minutes prior to the test, ID50 by linear regression analysis
Experimental: Inhibition of Spontaneous Motor Activity
Spontaneous motor activity was measured as described earlier [Borsy et al., Arch. Int. Pharmacodyn. 124: 1-, 1960.] in a 10 box apparatus (Dews) 3--3 mice in each compartment. Mice were treated either with test compounds or with vehiculum 60 minutes prior to the test. The number of interruptions of the infrared light beams was counted, ID50 values were calculated by linear regression analysis (Table IV).

5-HT2C [3] = biological target: T6, 5-HT2C (Sus scrofa, UniProt K7GSR7); test: biochemical; type: binding, porcine
T6 construct: from tissue; host or cells: porcine choroid plexus
T6 sequence (K7GSR7 1-457): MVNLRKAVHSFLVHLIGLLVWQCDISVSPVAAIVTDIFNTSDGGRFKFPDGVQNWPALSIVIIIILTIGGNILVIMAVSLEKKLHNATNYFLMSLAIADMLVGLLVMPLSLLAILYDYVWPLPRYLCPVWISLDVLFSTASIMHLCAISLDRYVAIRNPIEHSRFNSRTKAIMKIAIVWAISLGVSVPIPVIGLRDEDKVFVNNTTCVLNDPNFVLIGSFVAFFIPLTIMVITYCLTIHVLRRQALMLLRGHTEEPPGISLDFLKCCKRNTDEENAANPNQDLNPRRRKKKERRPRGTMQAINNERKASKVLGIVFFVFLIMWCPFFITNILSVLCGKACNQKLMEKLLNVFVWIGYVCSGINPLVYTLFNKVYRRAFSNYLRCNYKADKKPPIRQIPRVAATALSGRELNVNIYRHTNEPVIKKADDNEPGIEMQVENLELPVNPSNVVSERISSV
Experimental: as §1
(§2) 5-HT2C ^3 H-mesulergin choroid mianserin Pazos, A. et
(§3) 1.0 nM plexus (1 μM) al. Eur. J.

5-HT2C [4] = test: biochemical; type: binding, porcine; settings: among 5-HT receptors
Experimental: as §1, §2, §3

T1 sequence (Q9R0C9 whole entry): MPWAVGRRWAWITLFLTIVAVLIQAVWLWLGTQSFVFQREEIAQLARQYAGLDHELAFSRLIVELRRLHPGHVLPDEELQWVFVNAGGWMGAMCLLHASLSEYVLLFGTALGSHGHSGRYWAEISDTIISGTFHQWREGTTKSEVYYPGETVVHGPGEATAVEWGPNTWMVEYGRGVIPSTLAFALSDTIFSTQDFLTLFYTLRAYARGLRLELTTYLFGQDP

SMILES	binding at sigma receptors (in words) (Sigma)	Ki (Sigma) [µM]	Ki (D1) [µM]	ED50 (animal or person) [mg/kg]	potentiation of hexobarbital induced narcosis (in words) (animal or person; mouse, in vivo)	minimal effective dose [1] [mg/kg]	effect on mCPP induced anxiety (in words) [1]	minimal effective dose (Elevated plus-maze test) [mg/kg]	effect in the elevated plus maze test (in words) (Elevated plus-maze test)	Ki (5-HT2A) [µM]	Ki (D2) [µM]	Ki (5-HT1A) [µM]	ED50 [2] [mg/kg]	inhibition of spontaneous motor activity (in words) ([2]; sedato-hypnotic side effect, compared to Compound B)	Ki (5-HT2C [3]) [µM]	selectivity of binding among 5-HT receptors (in words) (5-HT2C [4])
CNCCO[C@]1(c2ccccc2)C[C@H]2CC[C@]1(C)C2(C)C [Compound A, (1R,2S,4R)-(-)-2-phenyl-2-methylaminoethoxy-1,7,7-trimethyl-bicyclo[2.2.1]heptane-fumarate]	does not	> 0.1	10	4	potentiated the hexobarbital induced narcosis to a lesser extent	> 3	completely ineffective up to 3.0 mg/kg i.p.	1	effective in the elevated plus maze test	> 0.1	> 0.1	> 10	57	inhibited the spontaneous motor activity in higher doses only	0.02	binds only to 2C
CN(C)CCO[C@]1(c2ccccc2)C[C@H]2CC[C@]1(C)C2(C)C [Compound B, (1R,2S,4R)-(-)-2-phenyl-2-dimethylaminoethoxy-1,7,7-trimethyl-bicyclo[2.2.1]heptane-fumarate, reference compound]	shows significant binding at sigma receptors	0.052	> 1	0.5		0.5	significantly antagonized the mCPP induced anxiety	> 10	did not show any effect	0.035	> 0.1	> 10	31.5		0.009	not selective at 2C
